According to publication PMC7125560 (Bioorganic & Medicinal Chemistry, 2007):

What was measured:
SARS-CoV = details: read-out: EC50 (SARS-CoV); cited from earlier work
[1] = tested on: HCV subgenomic replicon RNA; assay: real-time RT-PCR quantification of replicon RNA; assay type: cell-based, hepatitis C virus (HCV); details: two-day incubation

Compound: O=C(OC[C@H]1C[C@@H](n2cnc3c(Cl)ncnc32)[C@@H]1CO)c1ccccc1 [Compound 5]
- EC50 (SARS-CoV): 14.5 µM

Compound: OC[C@H]1C[C@@H](n2cnc3c(Cl)ncnc32)[C@@H]1CO [Compound 6]
- EC50 (SARS-CoV): > 300 µM

Compound: O=C(OC[C@H]1O[C@@H](n2cnc3c(Cl)ncnc32)C[C@@H]1O)c1ccccc1 [Compound 10, 9-(5-O-benzoyl-β-D-2-deoxyribofuranosyl)-6-chloropurine]
- replicon RNA amount ([1]; 12.5 μM): approximately 45%
- replicon RNA amount ([1]; 25 μM): ~6%
